# Test results: article PMC8018184, “Evaluation of the Pharmacophoric Role of the O–O Bond in Synthetic Antileishmanial Compounds: Comparison between 1,2-Dioxanes and Tetrahydropyrans” (Journal of Medicinal Chemistry, 2020)
# Experiments:
# [1] = system: ROS in L. donovani promastigotes; experiment: Evaluation of intracellular ROS levels (H2DCFDA fluorescence); format: cell-based, Leishmania donovani; details: for Intracellular ROS levels compared to negative control (untreated promastigotes): compound at its IC50, 24 h, H2DCFDA; for ROS production compared to positive controls: compound at its IC50, H2O2 20 μM, miltefosine 22 μM
# Procedure: We evaluated the ability of our synthetic compounds to generate reactive oxygen species (ROS) in L. donovani promastigotes. We selected the endoperoxide 2a and the tetrahydropyran 3a as model substrates, which were administered to the parasites in the presence of 2,7-dichlorodihydrofluorescein diacetate (H2DCFDA), a live-cell-permeable dye, which is oxidized by ROS, providing a fluorescent compound (DCF) (see Experimental Section for details).[103] Therefore, the resultant fluorescence is a direct measure of the amount of ROS generated.
# To monitor the effect of the compounds on the production of ROS in promastigotes of L. donovani, an oxidant-sensitive green fluorescent dye (2,7-dichlorofluorescein diacetate, H2DCFDA) was used. […] Subsequently, parasitic cells were washed in PBS (pH 7.4), loaded with 10 μM permeant probe H2DCFDA (Sigma, St. Louis, MO, USA), and incubated in the dark for 35 min at 26 °C.[103] H2O2 (20 μM)[124] and miltefosine (22 μM)[125] were used as positive controls. Each experiment was performed in triplicate. Reactive oxygen species (ROS) production was measured as an increase in fluorescence caused by the conversion of nonfluorescent dye to highly fluorescent 2,7-dichlorofluorescein, with an excitation wavelength of 488 nm and an emission wavelength of 530 nm. Plates were read by employing a fluorescence microplate reader Varioskan Flash (Thermo Fisher Scientific Inc.).
# [2] = system: intramacrophage amastigotes of L. donovani; experiment: Amastigote growth inhibition assay in infected THP-1 cells (Giemsa, infectivity index); format: cell-based, Leishmania donovani; details: for IC50: Leishmania donovani, intracellular amastigotes in THP-1, 72 h, read-out: IC50 against amastigotes of L. donovani
# Procedure: To evaluate the efficacy of the compounds on the intracellular form of L. donovani, human acute monocytic leukemia cell line (THP-1) was infected with L. donovani promastigotes. Cells were harvested and seeded in a 96-well plate (10^5 cells mL^–1) in the complete RPMI 1640 medium, and PMA (0.1 μM, Cayman Chemical Company, Ann Arbor, Michigan, USA) was added for obtaining maturation and cell adherence. Cells were incubated at 37 °C in a 5% CO2 incubator. After 48 h, the medium was replaced with the fresh medium containing stationary-phase promastigotes that were then phagocyted by monocytic cells and transformed into intracellular amastigotes. After 24 h of incubation, newly synthesized compounds were added and the plates were incubated at 37 °C in a 5% CO2 incubator for 72 h. After incubation, wells were washed, fixed, and stained with Giemsa. Staining was detected using a Nikon Eclipse E200 light microscope (Nikon, Tokyo, Japan). The infectivity index (% of infected macrophages × average number of amastigotes per macrophage) was determined by counting at least 100 cells in duplicate cultures.
# [3] = Cytotoxicity test on THP-1 cells (alamarBlue); format: cell-based; details: human, THP-1 cells (acute monocytic leukemia cell line); CSV supplement; read-out: CC50 against human acute monocytic leukemia cell line (THP-1)
# Procedure: Vero cells (kidney of African green monkey epithelial cell line) were cultured at 37 °C in the MEM liquid medium supplemented with 10% FBS (EuroClone SpA), 1% levoglutamine (EuroClone SpA), and 1% penicillin–streptomycin (EuroClone SpA). THP-1 cells (human leukemia monocytic cell line) were cultured at 37 °C in the RPMI 1640 (EuroClone SpA) liquid medium supplemented with 10% FBS (EuroClone SpA), 1% levoglutamine (EuroClone SpA), 1% penicillin–streptomycin, and mercaptoethanol (Gibco) 50 μM.
# The cytotoxicity of the compounds was determined using mammalian kidney epithelial cells (Vero cell line) and human acute monocytic leukemia cell line (THP-1). Cells were seeded (10^5 cells mL^–1) on 96-well plates with the complete MEM medium and incubated with test compounds at 37 °C in a 5% CO2 incubator. After 72 h of incubation, 20 μL of the alamarBlue reagent was added to each well and incubated at 37 °C for 24 h. Reduction of resazurin to resorufin was evaluated after 24 h by absorbance measurement at the Multiskan ascent plate reader (Thermo Fisher Scientific Inc.,) at 550 and 630 nm. […] Each experiment was performed in duplicate.
# Cytotoxicity in THP-1 cell line
# We performed additional cytotoxicity tests employing THP-1 cell line. We also calculated the
# corresponding selectivity indexes, as the ratio between CC50 of THP-1 cell line and IC50 on amastigotes
# THP-1 cells than on VERO cells; thus showing a not significant variance of selectivity index.
# Table S3. Inhibitory activity of tetrahydropyrans 3 and endoperoxides 2 against amastigotes of L.
# donovani, cytotoxicity in human acute monocytic leukemia cell line (THP-1) and selectivity index (SI).
# Tetrahydropyran IC50 CC50 Endoperoxide IC50 CC50
# a (µM)b (µM)c a (µM)b (µM)c
# a Compounds tested as racemates. b IC50 represents the concentration of a compound that causes 50% growth inhibition.
# Results represent the mean (± standard deviation, SD) of three independent experiments performed in duplicate. c CC50
# represents 50% cytotoxic concentration on THP-1 cells. d Selectivity index (SI) = CC50/IC50. […]
# [4] = system: L. donovani promastigotes (MHOM/NP/02/BPK282/0cl4); experiment: Promastigote growth inhibition assay (alamarBlue); format: cell-based; details: Leishmania donovani, HOMEM with 10% FBS
# [5] = system: L. donovani promastigotes; experiment: Promastigote growth inhibition in the presence of an iron chelator (DFO or DFP), isobologram; format: cell-based, Leishmania donovani; details: for Interaction with the iron chelator DFP (isobologram, FIC): FIC values > 0.5 and < 4; for IC50: Leishmania donovani, no DFO, read-out: IC50 against promastigotes, absence of DFO; for Interaction with the iron chelator DFO (isobologram, ΣFIC): synergism <0.5, antagonism >4.0, else additivity
# Procedure: At first, we determined IC50 and CC50 values of the iron chelator DFO (187 and >400 μM, respectively). Then, the effect of the iron chelator presence on the bioactivity of the two compounds was studied by coincubating 2a and 3a with DFO at different concentrations. The variation of IC50 of the compounds in relation to the different doses of DFO was determined by the alamarBlue assay (Table 3), and the isobole technique was employed to depict the interactions of 2a and 3a with DFO (Figure 6).
# The isobole technique was used for depicting synergistic or antagonistic interaction between the iron chelator and the two compounds on the parasite growth (Figure 6). Combinations are expressed as the sum of the fractional inhibitory concentrations (ΣFIC), and FIC values are defined as synergism (<0.5), antagonism (>4.0), and additivity (no interaction). The strength of synergism (or antagonism) is indicated by the degree of deviation from the line of additivity.
# […]. Each compound was added using a concentration range including the IC50 of each compound. Each experiment was performed in duplicate. The viability of the parasites was determined by the alamarBlue assay. The fractional inhibitory concentration (FIC; FIC = IC50 of the drug in the combination/IC50 of the drug when tested alone) of each compound was calculated and plotted as an isobologram.
# [6] = THP-1 CC50 / IC50 on amastigotes
# [7] = Vero CC50 / IC50 on amastigotes
SMILES,Intracellular ROS levels compared to negative control (untreated promastigotes) [1],ROS production compared to positive controls [1],IC50 [2] [µM],"Selectivity index (SI) = CC50/IC50 [2, 6]","Selectivity index (SI) = CC50/IC50 [2, 7]",CC50 at 72 h [3] [µM],IC50 [4] [µM],"Interaction with the iron chelator DFP (isobologram, FIC) [5]",IC50 [5] [µM],"Interaction with the iron chelator DFO (isobologram, ΣFIC) [5]"
"CCCCC1(CCCC)CO[C@@](C)(OC)[C@@H](CNCCCn2ccnc2)C1 (racemic) [3a, N-((5,5-Dibutyl-2-methoxy-2-methyltetrahydro-2H-pyran-3-yl)methyl)-3-(1H-imidazol-1-yl)propan-1-amine]",increase in the intracellular ROS levels,higher ROS production when compared to H2O2,3.4 ± 0.6,7.6,10.3,26,1.9,no antagonism or synergism,3.4 ± 0.4,additive effects
CCCCC1(CCCC)C[C@H](CNCCCn2ccnc2)[C@](C)(OC)OO1 [2a],increase in the intracellular ROS levels,lower fluorescence intensity when compared to H2O2 and miltefosine,12.2 ± 1.2,7.0,5.9,86,2.7,no antagonism or synergism,7.5 ± 1.7,additive effects
